Experimental data taken from patent US5461046A, “1-,2-,3-,4-,5-,6-,7-,8-, and/or 9-substituted dibenzoxazepine compounds, pharmaceutical compositions and methods for treating pain” (G. D. Searle & Co., priority 1993, dated 1995).
Like-named read-outs stand apart in the source and are kept apart here.

Experiments:
[1] = system: phenylbenzoquinone (PBQ)-induced writhing in mice; assay: Writhing Assay (phenylbenzoquinone-induced writhing, analgesia); type: in vivo, Charles River male albino mice; details: Mus musculus, 25 min, 25 min before PBQ i.p., number of mice out of ten with analgesia
Excerpt: The Writhing Assay is one of the most widely-used experimental procedures for measuring the analgesic activity of different narcotic and nonnarcotic analgesic agents, and involves the continuous, chemically-induced pain of visceral origin to an animal, such as a mouse or rat. [Gyires et al., Arch. int. Pharmacodyn, 267, 131-140 (1984); C. Vander Wende et al., Fed. Proc., 15, 494 (1956); Koster et al., Fed. Proc., 18, 412 (1959); and Witken et al., J. Pharmacol. exp. Ther., 133, 400-408 (1961).] Chemicals which may be used to induce this pain include phenylbenzoquinone (PBQ) and acetic acid. As a result of the chemical irritation to the animal, a characteristic stretching and writhing of the animal (dorsiflexion of the animal's back, extension of its hindlimbs and the strong contraction of its abdominal musculature) will generally occur. […] Drugs which reduce the number of writhes of the animal appear to restore the normal nociceptive threshold of the animal.
Charles River male albino mice, weighing 20 to 30 grams were used in this assay.
Twenty-five minutes after subcutaneous or intragastric administration to ten mice of 30 mg per kilogram of body weight of a compound of the present invention ("test compound"), […] per 10 g of body weight of a 0.025% w/v solution of PBQ was injected intraperitoneally into each mouse. Ten mice which were given saline in place of a test compound of the invention were used as a control group.
Five minutes later, each mouse was individually placed into a glass beaker for observation, and the number of writhes occurring during the following ten-minute period was counted.
A test compound was considered to have produced analgesia in a mouse if, in accordance with the conditions set forth above, and under the test criteria employed for this assay, after the administration of 30 mg per kilogram of body weight of a compound of the present invention to the mouse, the number of writhes elicited by a mouse injected with PBQ was equal to, or less than, one-half the median number of writhes recorded for the saline-treated control group of mice that day, as described by Taber in "Predictive Value of Analgesic Assays in Mice and Rats," Advances in Biochemical Psychopharmacology, 8, 191 (1974).
The results for the particular compounds of the present invention analyzed in this assay, and discussed in the examples identified below which correspond thereto, are presented in Table 2 hereinbelow under the heading "WRITHING ASSAY." The fractions indicate the number of mice out of ten in which a test compound produced analgesia.

[2] = target: T1, prostaglandin E2-induced contractions of segments of guinea pig ileum (Cavia porcellus, UniProt A0A286XHJ6); assay: Prostaglandin (PGE) Antagonism Assay in guinea pig ileum; details: initial concentration 3 micromolar; estimated pA2 (slope -1.0 assumed) or Schild plot pA2
T1 construct: The ilea were then quickly removed from the guinea pigs; from tissue; host or cells: ileum segments of male albino guinea pigs
T1 sequence (A0A286XHJ6 1-405): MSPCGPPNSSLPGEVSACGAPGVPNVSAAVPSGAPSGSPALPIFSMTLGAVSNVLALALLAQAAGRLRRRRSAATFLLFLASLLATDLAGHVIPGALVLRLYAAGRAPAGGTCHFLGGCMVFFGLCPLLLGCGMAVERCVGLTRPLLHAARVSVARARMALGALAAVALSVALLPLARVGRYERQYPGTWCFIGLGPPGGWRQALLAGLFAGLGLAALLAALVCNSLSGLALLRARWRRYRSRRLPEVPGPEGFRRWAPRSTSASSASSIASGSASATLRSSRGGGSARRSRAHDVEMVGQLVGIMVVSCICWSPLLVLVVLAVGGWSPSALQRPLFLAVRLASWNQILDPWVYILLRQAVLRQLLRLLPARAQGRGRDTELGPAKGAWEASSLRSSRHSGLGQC
Experimental: In order to determine the effectiveness of several of the compounds of the present invention ("test compounds") as prostaglandin E2 antagonists,a prostaglandin antagonism assay was conducted, as described below, to determine the ability of these compounds to inhibit prostaglandin E2 -induced contractions of segments of guinea pig ileum.
Male albino guinea pigs weighing 200 to 500 grams were sacrificed by cervical dislocation. The ilea were then quickly removed from the guinea pigs and placed in a modified Tyrode solution, a solution which is known to those skilled in the art, containing one-half of the usual amount of magnesium ions.
Segments of ileum about 2 cm long were then cut and mounted in a 10-mL tissue bath containing the modified Tyrode solution. The solution was maintained at 37° C. and aerated with a gaseous mixture of 95% oxygen and 5% carbon dioxide. Data for a control prostaglandin E2 dose response curve plotting concentration of prostaglandin E2 versus the intensity of contractions, detected isotonically, was then obtained by experimentally adjusting the dose of the prostaglandin E2 being injected into the tissue bath, in a manner known by those of skill in the art.
Solutions or suspensions containing an initial concentration (3 micromolar) of a test compound in modified Tyrode solution ("test solutions/suspensions") were then separately substituted for the control bath solution. Each test solution/suspension was then kept in constant contact with the ileum tissue, except for brief periods to drain the bath in preparation for rinsing with fresh test solution/suspension. A second prostaglandin E2 dose response curve was then generated for prostaglandin E2 in the presence of a test compound.
A dose ratio of EC50 doses was then calculated from the results of each test in a manner known by those of skill in the art. A test compound was determined to be "active" if the initial concentration used yielded at least a two-fold shift (dose ratio greater than or equal to 2) in the dose response curve for prostaglandin E2.
The compounds of the present invention which were tested in this assay, and for which results are presented in Table 2, correspond to the particular examples specified in Table 2.

[3] = ip, 30 mg per kg i.g., read-out: WRITHING ASSAY Number Out of Ten I.G. (converted)
[4] = sc, 30 mg per kg s.c., read-out: WRITHING ASSAY Number Out of Ten S.C.

Kb [2] [µM]	SMILES	responders at 30 mg/kg [1, 3] [%]	responders at 30 mg/kg [1, 4] [%]
2.88	CCS(=O)(=O)CCC(=O)NNC(=O)N1Cc2ccccc2Oc2ccc(C(=O)OC)cc21 [Example 1, Dibenz [b,f][1,4]oxazepine-8,10(11H)dicarboxylic acid, 8-methyl ester, 10-[2-[3-(ethylsulfonyl)-1-oxopropyl]hydrazide]]	30	50
2	CCS(=O)(=O)CCC(=O)NNC(=O)N1Cc2ccccc2Oc2cc(C(=O)OC)ccc21 [Example 2, Dibenz[b,f][1,4]oxazepine-7,10(11H) dicarboxylic acid, 7-methyl ester, 10-[2-[3-(ethylsulfonyl)-1-oxopropyl]hydrazide]]	33.3	30
1.78	CCS(=O)(=O)CCC(=O)NNC(=O)N1Cc2ccccc2Oc2ccc(C(=O)OC(C)(C)C)cc21 [Example 3, Dibenz[b,f][1,4]oxazepine-8,10(11H)-dicarboxylic acid, 8-(1,1-dimethylethyl) ester, 10-[2-[3-(ethylsulfonyl)-1-oxopropyl]hydrazide]]	40	30
	CCS(=O)(=O)CCC(=O)NNC(=O)N1Cc2ccccc2Oc2ccc(C(=O)O)cc21 [Example 4, Dibenz[b,f][1,4]oxazepine-8,10(11H)-dicarboxylic acid, 10-[2-[3-(ethylsulfonyl)-1-oxopropyl]hydrazide]]	30	40
1.17	CCS(=O)(=O)CCC(=O)NNC(=O)N1Cc2ccccc2Oc2cc(C(=O)OC(C)(C)C)ccc21 [Example 5, Dibenz[b,f][1,4]oxazepine-7,10(11H)-dicarboxylic acid, 7-(1,1-dimethylethyl) ester, 10-[2-[3-(ethylsulfonyl)-1-oxopropyl]hydrazide]]	20	30
2.63	CCS(=O)(=O)CCC(=O)NNC(=O)N1Cc2ccccc2Oc2cc(C(=O)O)ccc21 [Example 6, Dibenz[b,f][1,4]oxazepine-7,10(11H)-dicarboxylic acid, 10-[2-[3-(ethylsulfonyl)-1-oxopropyl]hydrazide]]	40	20
	CCS(=O)(=O)CCC(=O)NNC(=O)N1Cc2ccccc2Oc2ccc(F)cc21 [Example 7, 8-fluorodibenz[b,f][1,4]oxazepine-10(11H)-carboxylic acid, 2-[3-(ethylsulfonyl)-1-oxopropyl]hydrazide]	40	60
	CCS(=O)(=O)CCC(=O)NNC(=O)N1Cc2cc(Cl)ccc2Oc2ccccc21 [Example 8, 2-chlorodibenz[b,f][1,4]oxazepine-10(11H)-carboxylic acid, 2-[3-(ethylsulfonyl)-1-oxopropyl]hydrazide]	60	60
1.58	CCS(=O)(=O)CCC(=O)NNC(=O)N1Cc2cc(Cl)ccc2Oc2ccc(Cl)cc21 [Example 9, 2,8-dichlorodibenz[b,f][1,4]oxazepine-10(11H)-carboxylic acid, 2-[3-(ethylsulfonyl)-1-oxopropyl]hydrazide]	40	30
2.88	CCS(=O)(=O)CCC(=O)NNC(=O)N1Cc2ccccc2Oc2ccc([N+](=O)[O-])cc21 [Example 10, 8-nitrodibenz[b,f][1,4]oxazepine-10(11H)-carboxylic acid, 2-[3-(ethylsulfonyl)-1-oxopropyl]hydrazide]	40	40
	CCS(=O)(=O)CCC(=O)NNC(=O)N1Cc2ccccc2Oc2ccc(C#N)cc21 [Example 11, 8-cyanodibenz[b,f][1,4]oxazepine-10(11H)-carboxylic acid, 2-[3-(ethylsulfonyl)-1-oxopropyl]hydrazide]	55.6	50
1.15	CCS(=O)(=O)CCC(=O)NNC(=O)N1Cc2ccccc2Oc2c(Cl)cccc21 [Example 12, 6-chlorodibenz[b,f][1,4]oxazepine-10(11H)-carboxylic acid, 2-[3-(ethylsulfonyl)-1-oxopropyl]hydrazide]	30	40
2.82	CCS(=O)(=O)CCC(=O)NNC(=O)N1Cc2ccccc2Oc2ccc(N)cc21 [Example 13, 8-aminodibenz[b,f][1,4]oxazepine-10(11H)-carboxylic acid, 2-[3-(ethylsulfonyl)-1-oxopropyl]hydrazide]	40	40
	CCS(=O)(=O)CCC(=O)NNC(=O)N1Cc2ccccc2Oc2ccc(NS(C)(=O)=O)cc21 [Example 14, 8-[(methylsulfonyl)amino]dibenz[b,f][1,4]-oxazepine-10(11H)-carboxylic acid, 2-[3-(ethylsulfonyl)-1-oxopropyl]hydrazide]	60	60
0.708	CCN(CC)c1ccc2c(c1)N(C(=O)NNC(=O)CCS(=O)(=O)CC)Cc1ccccc1O2 [Example 15, 8-(diethylamino)dibenz[b,f][1,4]oxazepine-10(11H)-carboxylic acid, 2-[3-(ethylsulfonyl)-1-oxopropyl]hydrazide]	30	10
2	CCS(=O)(=O)CCC(=O)NNC(=O)N1Cc2ccccc2Oc2ccc(OC)cc21 [Example 16, 8-methoxydibenz[b,f][1,4]oxazepine-10(11H)-carboxylic acid, 2-[3-(ethylsulfonyl)-1-oxopropyl]hydrazide]	60	20
	CCS(=O)(=O)CCC(=O)NNC(=O)N1Cc2ccccc2Sc2ccc(Cl)cc21 [Example 22, 8-chloro-10,11-dihydrodibenzo[b,f][1,4]thiazepine-10-(11H) carboxylic acid, 2-[3-(ethysulfonyl)-1-oxopropyl]hydrazide]	60	30
	CCS(=O)(=O)CCC(=O)NNC(=O)N1Cc2ccccc2S(=O)(=O)c2ccc(Cl)cc21 [Example 23, 8-chloro-10,11-dihydrodibenzo[b,f][1,4]thiazepine-10(11H) carboxylic acid, 2-[3-(ethylsulfonyl)-1-oxopropyl]hydrazide, 5,5-dioxide]	30	70
